Measurements reported in article PMC7397466, “Expression, purification and crystal structure determination of a ferredoxin reductase from the actinobacterium Thermobifida fusca” (Acta Crystallographica. Section F, Structural Biology …, 2020).

Target: T1, FdR9 (Thermobifida fusca, UniProt Q47QF8)
T1 construct: gene Tfu_1273
Test: X-ray crystal structure, […] Å
Format: binding
Details: copurified cofactor; crystals at pH 6.5, 298 K

T1 sequence (Q47QF8 entry or part of it): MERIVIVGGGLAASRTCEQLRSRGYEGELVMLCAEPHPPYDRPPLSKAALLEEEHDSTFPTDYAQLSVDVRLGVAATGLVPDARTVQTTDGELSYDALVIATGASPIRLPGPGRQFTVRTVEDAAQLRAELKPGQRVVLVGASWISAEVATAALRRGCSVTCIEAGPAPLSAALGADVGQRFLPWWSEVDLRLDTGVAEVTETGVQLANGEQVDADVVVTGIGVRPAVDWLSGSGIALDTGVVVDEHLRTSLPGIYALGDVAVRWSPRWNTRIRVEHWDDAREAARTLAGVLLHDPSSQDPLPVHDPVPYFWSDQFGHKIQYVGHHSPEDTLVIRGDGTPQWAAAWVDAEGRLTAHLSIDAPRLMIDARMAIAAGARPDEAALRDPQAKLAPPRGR

`Cc1cc2nc3c(=O)[nH]c(=O)nc-3n(C[C@H](O)[C@H](O)[C@H](O)COP(=O)(O)OP(=O)(O)OC[C@H]3O[C@@H](n4cnc5c(N)ncnc54)[C@H](O)[C@@H]3O)c2cc1C` [FAD] was tested, and the “X-ray crystal structure, 1.9 Å” value was “The resulting electron-density map allowed the identification of the FAD molecule bound to the reductase”.
